Common to all, as to assay: NCI tumour cell line growth inhibition, 48 h
Test [1] has as its system NCI-H460 lung.
Test [2] relates to RPMI-8226 leukemia.
Test [3] deals with MALME-3M melanoma.
Test [4] relates to SF-268 CNS.
The test system of test [5] is SNB-19 CNS.
The test system of test [6] is A498 renal.
Test [7] relates to HT29 colon.
The subject of test [8] is HS 578T breast.
Test [9] relates to SNB-75 CNS.
In test [10] the test system is U251 CNS.
Test [11] has as its system UACC-62 melanoma.
For test [12], the system named is SK-MEL-28 melanoma.
Test [13] relates to SN12C renal.
In test [14] the test system is CAKI-1 renal.
Test [15] concerns MOLT-4 leukemia.
Test [16] relates to NCI/ADR-RES ovarian.
Test [17] has as its system UACC-257 melanoma.
For test [18], the system named is HOP-62 NSCLC.
The subject of test [19] is NCI-H226 lung.
Test [20] concerns COLO 205 colon.

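Compound exposure: 48 hours, 5 concentrations, 96-well plates. TGI: total growth inhibition.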

In the case of `CC1=NNC(=O)C1C1CC(c2c[nH]c3ccccc23)=NNC1=S` (stereo not given), the TGI in test [1], in [2], in test [3], in test [4], in [5] and in test [6] was greater than 100 µM in each case. The TGI in test [7], in [8], in test [9], in test [10], in [11] and in test [12] was greater than 100 µM throughout. In addition, the TGI in test [13], in [14], in test [15], in [16], in test [17] and in test [18] was greater than 100 µM throughout. Further, the TGI in [19] and in [20] was greater than 100 µM throughout.

As to `CN(C)Cc1cc(N=Nc2cccc(Cl)c2)ccc1O`, the TGI amounted to 26.4 µM in test [1]; 55.8 µM in [2]; 31.6 µM in test [3]; 40.3 µM in test [4]; 51.3 µM in [5]; 23.8 µM in test [6]. The TGI is 33.7 µM in [7]; 29.4 µM in [8]; 39.1 µM in [9]; 33.1 µM in [10]; 13.1 µM in [11]; 26.9 µM in test [12]. Further, the TGI turned out to be 95.3 µM in [13]; 61.1 µM in test [14]; 32.5 µM in test [15]; 22.4 µM in test [16]; 29.3 µM in test [17]; 22.9 µM in test [18]. The TGI in test [19] was 50.7 µM; in test [20] it was 38.5 µM.

With `COc1cc2c(c(O)c1OC)C(O)C1CCC(=O)N1C2c1cccc2ccccc12` (stereo not given), the TGI in [1], in [2], in [3], in test [4], in [5] and in test [6] was greater than 100 µM throughout. Besides, the TGI in test [7], in test [8], in test [9], in test [10], in [11] and in [12] was greater than 100 µM throughout. Also, the TGI in test [13], in test [14], in test [15], in test [16], in test [17] and in test [18] was greater than 100 µM each time. In addition, the TGI in [19] and in [20] was greater than 100 µM in each case.

For `CCCN1CC=C(c2cc(C(=O)OCC)[nH]c2-c2cc(C)no2)C1=O`, the TGI in [1], in test [2], in test [3], in [4], in test [5] and in test [6] was greater than 100 µM in each case. Besides, the TGI in [7], in test [8], in test [9], in test [10], in test [11] and in [12] was greater than 100 µM each time. Also, the TGI in test [13], in test [14], in [15], in [16], in [17] and in [18] was greater than 100 µM in each case. The TGI in test [19] and in test [20] was greater than 100 µM throughout.

With `S=C1Cc2c(-c3ccc(Cl)cc3)cc(-c3ccccc3)nc2-c2ccccc2N1`, the TGI in test [1] was 36.2 µM; in [2], greater than 100 µM; in [3], 35.9 µM; in [4] it was 34.6 µM; in [5] it was 21.5 µM; in test [6] it was 33 µM. Moreover, the TGI is 21.6 µM in test [7]; 16.3 µM in test [8]; 17.4 µM in test [9]; greater than 100 µM in [10]; 41.3 µM in [11]; greater than 100 µM in test [12]. The TGI is 31.3 µM in test [13]; 13.1 µM in test [14]; greater than 100 µM in [15]; 48.6 µM in [16]; 36.1 µM in test [17]; 24.1 µM in test [18]. Also, the TGI was found to be 55.7 µM in [19] and 49.5 µM in [20].

On to `C#CCn1ncc2c(SC)ncnc21`, for which the TGI in test [1], in test [2], in test [3], in test [4], in [5] and in [6] was greater than 100 µM throughout. The TGI in [7] was greater than 100 µM; in [8] it was greater than 100 µM; in [9] it was 97.8 µM; in test [10], greater than 100 µM; in test [11] it was greater than 100 µM; in [12], greater than 100 µM. The TGI in test [13], in test [14], in [15], in [16], in [17] and in test [18] was greater than 100 µM each time. Further, the TGI in [19] and in [20] was greater than 100 µM each time.

For the molecule `CC(=O)c1c(SCCN2CCCC2)n(-c2ccccc2)c(=S)n(-c2ccccc2)c1=O`, the TGI in [1] is greater than 46.6 µM; in [2] it was 4.61 µM; in test [3], 12.2 µM; in test [4], 33.2 µM; in [5], greater than 77.1 µM; in test [6] it was 27.7 µM. Also, the TGI amounted to 20.7 µM in test [7]; 54.2 µM in test [8]; 31.8 µM in test [9]; 47.9 µM in [10]; 20 µM in test [11]; 14.2 µM in test [12]. The TGI in test [13] is 20.5 µM; in test [14], 10.2 µM; in test [15], greater than 23.4 µM; in [16], greater than 85.2 µM; in test [17] it was 9.17 µM; in test [18] it was 55 µM. In addition, the TGI was found to be 54.1 µM in test [19] and 3.48 µM in test [20].

Consider `C=CCOC(=O)Cn1cc(C)c(=O)[nH]c1=O`, for which the TGI in test [1], in test [2], in test [3], in test [4], in test [5] and in test [6] was greater than 100 µM each time. Moreover, the TGI in test [7], in [8], in test [9], in [10], in test [11] and in test [12] was greater than 100 µM in each case. The TGI in test [13], in test [14], in [15], in test [16], in test [17] and in test [18] was greater than 100 µM each time. Also, the TGI in test [19] and in test [20] was greater than 100 µM in each case.

With `O=[N+]([O-])c1ccc2[nH]nc(OCc3ccccn3)c2c1`, the TGI in test [1], in test [2], in test [3], in test [4], in test [5] and in [6] was greater than 100 µM in each case. Also, the TGI in test [7], in [8], in [9], in [10], in test [11] and in test [12] was greater than 100 µM throughout. Moreover, the TGI in test [13], in [14], in test [15], in [16], in test [17] and in [18] was greater than 100 µM throughout. Further, the TGI in test [19] and in test [20] was greater than 100 µM each time.

On to `C1=Nc2ccc(cc2)N=Cc2ccc(cc2)OCc2cccc(n2)COc2ccc1cc2`, for which the TGI in test [1], in test [2], in [3], in test [4], in test [5] and in test [6] was greater than 100 µM in each case. Moreover, the TGI in test [7], in test [8], in [9], in [10], in [11] and in test [12] was greater than 100 µM each time. Further, the TGI in test [13], in [14], in [15], in [16], in test [17] and in test [18] was greater than 100 µM each time. Moreover, the TGI in test [19] and in test [20] was greater than 100 µM throughout.

For the molecule `COc1ccc(NC(=O)CC(=O)N2N=C(c3ccccc3)C(N=Nc3ccc(S(=O)(=O)CCOS(=O)(=O)O)cc3)C2=O)cc1` (stereo not given), the TGI in test [1], in test [2], in test [3], in test [4], in test [5] and in test [6] was greater than 100 µM throughout. For the same molecule, the TGI in test [7], in test [8], in test [9], in [10], in test [11] and in test [12] was greater than 100 µM throughout. The TGI in [13], in test [14], in test [15], in test [16], in test [17] and in [18] was greater than 100 µM throughout. Also, the TGI in test [19] and in [20] was greater than 100 µM each time.

For the molecule `O=C(N/N=C(/COc1ccc(Cl)cc1)N=Cc1cccnc1)c1ccncc1`, the TGI in test [1], in [2], in test [3], in test [4], in test [5] and in test [6] was greater than 100 µM throughout. Also, the TGI is greater than 100 µM in [7]; 94.9 µM in [8]; greater than 100 µM in test [9]; greater than 100 µM in test [10]; greater than 100 µM in test [11]; greater than 100 µM in [12]. In addition, the TGI in test [13], in test [14], in [15], in [16], in test [17] and in test [18] was greater than 100 µM each time. Moreover, the TGI in test [19] and in [20] was greater than 100 µM each time.

With `CCN(CC)c1ccc(/C=C2/C[N+](C)(C)C/C(=C/c3ccc(N(CC)CC)cc3)C2=O)cc1`, the TGI is 15 µM in test [1]; 1.24 µM in test [2]; 4.38 µM in test [3]; 11.2 µM in test [4]; 19.4 µM in test [5]; greater than 42.2 µM in test [6]. The TGI is 5.2 µM in test [7]; 11.2 µM in test [8]; 8.88 µM in [9]; 9.24 µM in [10]; 4.84 µM in [11]; 4.09 µM in test [12]. Besides, the TGI in test [13] is 16.4 µM; in test [14], greater than 100 µM; in test [15], 4.83 µM; in test [16] it was greater than 100 µM; in [17], 6 µM; in test [18], 40.7 µM. The figures for the TGI in test [19] and in test [20] were 17.2 µM and 2.69 µM, respectively.

Consider `COc1ccc(N(CN2C(=O)CCC2C(=O)O)C(C)=O)cc1` (stereo not given), for which the TGI in test [1], in test [2], in test [3], in [4], in test [5] and in test [6] was greater than 100 µM each time. Moreover, the TGI in test [7], in test [8], in [9], in [10], in test [11] and in [12] was greater than 100 µM each time. Further, the TGI in test [13], in test [14], in test [15], in test [16], in [17] and in test [18] was greater than 100 µM each time. The TGI in test [19] and in [20] was greater than 100 µM in each case.
